Test results taken from paper PMC4589238, “Acute Biphasic Effects of Ayahuasca” (PLoS ONE, 2015).
Read-outs that look alike come from different tables or passages of the source.

How the values were obtained:
[1] = Plasma concentrations of ayahuasca compounds and metabolites after oral ayahuasca (LC/MS/MS); format: in vivo, human; set-up: AUC (mean ± sd): unit not given here; settings: for Cmax: po; for Time to reach plateau of plasma level in the group average: from ayahuasca ingestion, group average curve
Source text: A sample of six liters of "Hoasca" was donated by the União do Vegetal (UDV) church in Brazil for the specific purpose of use in this study. Quantification of the main compounds in the brew was done with liquid chromatography-electrospray ionization-tandem mass spectrometry (LC/MS/MS). The screening included the following compounds: DMT, DMT‐N‐oxide (DMT-NO), N‐methyltryptamine (NMT), indoleacetic acid (IAA), 5‐hydroxy‐DMT (5-OH-DMT, or bufotenin), 5‐methoxy‐DMT (5-MeO-DMT), Harmine, Harmol, Harmaline, Harmalol, THH, 7‐hydroxy‐tetrahydroharmine (THH-OH), and 2‐methyl‐tetrahydro‐beta‐carboline (2-MTHBC). The original liquid volume was then reduced to 50% using a rotary evaporator to decrease the amount of liquid intake.
Blood was collected in sterile EDTA containing tubes. Ten blood samples (3 mL each) were collected every 25 minutes, starting 25 minutes before ayahuasca ingestion and ending 200 minutes after ingestion (in a total of ten samples for each individual). Blood was collected by a professional nurse, with a catheter that remained in place during the entire time of the study. Each tube was carefully and slowly turned upside-down three times and then stored at 0°C until all ten samples were collected. Blood samples were then centrifuged at 2000 rpm for 10 min at 4°C and the resulting plasma immediately collected and frozen at -80°C. The frozen plasma samples were stored at -80°C until shipped on dry ice to USA for analysis according to [31]. Compounds included in this screening were DMT, DMT-NO, NMT, IAA, 5-OH-DMT (bufotenin), 5-MeO-DMT, Harmine, Harmol, Harmaline, Harmalol, THH, THH-OH and 2-MTHBC.
Two volunteers opted out of blood collection, and data from one volunteer was discarded due to high hemolysis in the blood samples. Therefore data were available from 16 volunteers. Maximum plasma Concentration (Cmax), Time for maximum plasma concentration (Tmax) and area under the curve (AUC) of ten identified compounds are summarized in Table 2. […] No significant differences were found between men and women for any of the identified compounds in blood. […] There were no significant correlations between time to vomit and Cmax or AUC.

[2] = test system: MAO-A; set-up: method as in PMID 19879939; settings: cited from earlier work
[3] = test system: rats; set-up: method as in PMID 9649961; settings: cited from earlier work
[4] = test system: human subjects; settings: cited from earlier work
[5] = test system: healthy volunteers; assay: Association between plasma concentration and EEG spectral changes (generalized linear models); format: in vivo, human; settings: for Clusters between plasma concentration and EEG spectra: delta, theta and beta frequency bands; for Cohen's d, plasma concentration vs fast-gamma power increase: one large widespread bilateral cluster
Description: Relationships between plasma concentration of identified compounds and spectral changes in the six frequency bands evaluated were calculated by fitting generalized linear models (glmfit function in MATLAB) for each compound and frequency band. This analysis was followed by the non-parametric cluster based correction with 5000 permutations.
Results were considered statistically significant when p <0.05. Effect sizes are also reported, using Partial eta squared (partial η^2) for the main frequency clusters and Cohen’s d for the generalized linear models.

[6] = test system: 5HT-2A receptors; settings: cited from earlier work
[7] = cited from earlier work
[8] = plasma, 16 volunteers, oral ayahuasca

COc1ccc2c3c([nH]c2c1)C(C)=NCC3 [Harmaline]
Cmax ([1]; both sexes, human, in vivo, plasma, 16 volunteers, oral ayahuasca, sampling to 200 min, read-out: Cmax (mean ± sd)): 14.7 ± 13.9 ng/mL
Cmax ([1]; both sexes, human, in vivo, plasma, 16 volunteers, oral ayahuasca, read-out: Cmax (min—max)): 1.56 to 44.4 ng/mL
Tmax ([1]; both sexes, human, in vivo, plasma, 16 volunteers, oral ayahuasca, read-out: Tmax (mean ± sd) (converted)): 2.68 h
Time to reach plateau of plasma level in the group average [1]: 100 min
AUC (min—max) [1, 8]: 6.16 to 199.78 g·min/mL
Potency at inhibiting MAO-A relative to MAO-B [2]: 10,000 fold
Substitution in drug discrimination [3]: substitute the psychedelic DOM
Dose necessary for psychoactivity ([4]; oral or i.v. administration): 4 mg/kg
Orally psychoactive dose ([4]; oral): 300 to 400 mg
Clusters between plasma concentration and EEG spectra [5]: did not show any significant clusters
Cohen's d, plasma concentration vs alpha band power decrease ([5]; left centro-parieto-occipito-frontal electrodes): 0.0285
Cohen's d, plasma concentration vs slow-gamma power increase ([5]; left fronto-temporo-centro-parieto-occipital electrodes also extending to right temporo-parietal electrodes): 0.0885
Cohen's d, plasma concentration vs fast-gamma power increase [5]: 0.0032
Cohen's d, plasma concentration vs alpha band power decrease ([5]; right central electrodes (C2, C4, CP4 and CP6)): 0.2944
Cohen's d, plasma concentration vs slow-gamma power increase ([5]; right frontal electrodes): 0.0401

COc1ccc2c3c([nH]c2c1)[C@@H](C)NCC3 [THH, tetrahydroharmine]
Time to reach plateau of plasma level in the group average [1]: 150 min
AUC (mean ± sd) [1, 8]: 1262.09 ± 1270.39
AUC (min—max) [1, 8]: 75.01 to 3762.73 g·min/mL
Cmax (min—max) [1, 8]: 22.62 to 895.70 ng/mL
Tmax (mean ± sd) [1, 8]: 3.1772 ± 0.7117 h
Cmax (mean ± sd) ([1]; plasma, 16 volunteers, oral ayahuasca, sampling to 200 min): 328.76 ± 324.86 ng/mL
Affinity for 5HT-2A receptors [6]: moderate affinity
Cohen's d, plasma concentration vs slow-gamma power increase ([5]; bilateral parieto-occipital cluster): 0.0656
Clusters between plasma concentration and EEG spectra [5]: did not show any significant clusters
Cohen's d, plasma concentration vs alpha band power decrease ([5]; left fronto-centro-parieto-occipital cluster extending to some right centro-parietal electrodes): 0.0044
Cohen's d, plasma concentration vs slow-gamma power increase ([5]; left fronto-temporo-central electrodes): 0.0795
Cohen's d, plasma concentration vs fast-gamma power increase [5]: 0.0501
Cohen's d, plasma concentration vs slow-gamma power increase ([5]; right frontal electrodes): 0.0366
Recovery in 24 h urine as THH and THH-OH ([7]; after ingestion of ayahuasca): 9%
Half-life [7]: ~9 h
